Assay results from US7601805B2, “Photoprotein with improved bioluminescence” (AXXAM S.R.L., priority 2002, dated 2009).

How the values were obtained:
[1] = system: endogenous ATP receptor expressed by CHO-K1 cell; assay: ATP-stimulated light emission in CHO-K1 cells transfected with Photin DNA; type: cell-based; conditions: two different concentrations of ATP (FIG. 3A)
Description: Cell transfection, harvesting, and Photin expression were performed as described in Example 1. Cells were treated with two different concentration of ATP. (B) The CHO-K1 cells transfected with Obelin DNA were used as positive control. Luminescence is expressed in RLU (relative light units).
3.1 Photin-expressing clones have been obtained by transfection of CHO-K1 cells (Materials and Methods). Two days after transfection the cells were trypsinized and diluted 10 or 100 times. Once the cells were grown up to well isolated colonies, the colonies were transferred to new plates and selected on the basis of their functional response (luminescent signal) to different concentration of ATP, which is known to stimulate the CHO endogenous receptor and to rise the cytoplasmic Ca^++ concentration. At the end of each experiment, cells were lysed by perfusion of a solution containing TritonX-100 and CaCl2. The active photoprotein was reconstituted incubating the cells with 10 μM coelenterazine diluted in PBS containing 2 mM calcium, in the dark at 37° C. in a 5% CO2 atmosphere for 3 hrs. For light emission measurement, cells were lysed in the presence of calcium and the emitted luminescence recorded. […] To detect changes in calcium concentrations, 10, 50 and 100 μM ATP were injected and the kinetics of calcium response determined. […]

[2] = biological target: T1, rat VR1 capsaicin receptor (Rattus norvegicus, UniProt O35433); assay: Capsaicin-stimulated flash luminescence in CHO cells expressing Apophotin and rat VR1; type: cell-based; conditions: 10 and 50 μM capsaicin; CHO cells with Apophotin and rat VR1 (FIG. 5)
T1 construct: expressed in transfected cells; host or cells: CHO
Description: The specific agonist, capsaicin, was used at a concentration of 10 and 50 μM.
3.3 CHO cell lines expressing both Apophotin and the rat VR1 capsaicin receptor—a calcium-permeable ion channel—were grown to 80-95% confluence in tissue culture flasks and harvested by trypsinization. Cells were dispensed at 10,000 cells/well in a 96-well white plates in growth medium and incubated overnight at 37° C. in a humidified incubator at 5% CO2. For luminescence experiments, the cells were loaded with coelenterazine 10 μM for 3 h at 37° C., 5% CO2. Calcium response was stimulated by addition of 10 and 50 μM capsaicin to each well. The kinetics of flash luminescence was followed using Labsystem Luminoskan Ascent, which injects reagents and records light emission from each single well.

T1 sequence (O35433 whole entry): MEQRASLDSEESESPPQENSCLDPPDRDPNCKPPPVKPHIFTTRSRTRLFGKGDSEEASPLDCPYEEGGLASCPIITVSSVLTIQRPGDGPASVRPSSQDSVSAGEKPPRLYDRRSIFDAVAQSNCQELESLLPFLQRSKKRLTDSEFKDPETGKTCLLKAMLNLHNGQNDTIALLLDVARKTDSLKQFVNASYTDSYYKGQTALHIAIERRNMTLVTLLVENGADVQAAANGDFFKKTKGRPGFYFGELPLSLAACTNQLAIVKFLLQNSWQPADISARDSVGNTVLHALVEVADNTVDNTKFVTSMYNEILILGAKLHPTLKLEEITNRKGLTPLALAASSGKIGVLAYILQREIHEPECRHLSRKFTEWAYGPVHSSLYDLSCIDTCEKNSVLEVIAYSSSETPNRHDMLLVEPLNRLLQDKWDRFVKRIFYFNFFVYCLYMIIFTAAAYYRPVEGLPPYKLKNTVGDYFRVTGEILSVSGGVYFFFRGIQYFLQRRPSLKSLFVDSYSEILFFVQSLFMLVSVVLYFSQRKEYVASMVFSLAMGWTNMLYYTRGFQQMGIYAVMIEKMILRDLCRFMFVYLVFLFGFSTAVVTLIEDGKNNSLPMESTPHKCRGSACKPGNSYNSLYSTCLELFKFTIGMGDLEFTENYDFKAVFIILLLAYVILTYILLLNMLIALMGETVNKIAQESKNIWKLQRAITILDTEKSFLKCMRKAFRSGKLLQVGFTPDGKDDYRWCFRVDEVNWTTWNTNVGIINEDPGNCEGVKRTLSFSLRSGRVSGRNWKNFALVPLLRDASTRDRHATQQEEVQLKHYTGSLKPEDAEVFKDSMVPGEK

Row | time of peak level of luminescence signal [2] | time within which the rapid and transient luminescence signal occurred [2] [s] | SMILES | light emission upon stimulation of the endogenous ATP receptor [1]
1 |  |  | Nc1ncnc2c1ncn2[C@@H]1O[C@H](COP(=O)(O)OP(=O)(O)OP(=O)(O)O)[C@@H](O)[C@H]1O [ATP] | dose dependent light emission
2 | about 10 seconds | ≤ 30 | COc1cc(CNC(=O)CCCC/C=C/C(C)C)ccc1O [capsaicin] | 
